Starred links: 1 amine or outer side, 2 acyl side, 3 side chain; linkers in the order of their positions; H or OH if unused. Non-standard residues stand in square brackets, D forms with d. Residues, ends and D or L forms follow the SMILES beside them. *: point of attachment. NHCH2CH2(piperidin-1-yl) = C1CCN(CCN*)CC1; dPhe(4-Cl) = N[C@H](Cc1ccc(Cl)cc1)C(=O)O; NH(2-(2-pyridyl)ethyl) = c1ccc(CCN*)nc1; NH(2-morpholinoethyl) = C(CN1CCOCC1)N*; NH(CH2)10NH = C(CCCCCN[*:2])CCCCN[*:1]; d2Nal = N[C@H](Cc1ccc2ccccc2c1)C(=O)O; NMeY = CN[C@@H](Cc1ccc(O)cc1)C(=O)O; NHCH2(2-pyridyl) = c1ccc(CN*)nc1; d3Pal = N[C@H](Cc1cccnc1)C(=O)O; NH(3-picolyl) = c1cncc(CN*)c1; Nicotinoyl = O=C(c1cccnc1)*; NH(CH2)8NH2 = NCCCCCCCCN*; Agmatine = N=C(N)NCCCCN*; X9 = CC(C)NCCCCCCCCCCN*; X6 = N=C(N)NCCCCCCCCN*; NHCH2CH2NHMe = CNCCN*; X13 = C(CN*)CN1CCOCC1; X5 = C1CN2CCC1C(N*)C2; X1 = CC1CCCCN1CCCN*; X7 = CN1CCCC1CCN*; X8 = Cn1cccc1CCN*
These compounds were tested against T1, LH release from rat pituitary cells (Rattus norvegicus, UniProt P30969) (assay: in vitro inhibition of LH release from rat pituitary cells (pA2)). Conditions: pA2 = negative logarithm of antagonist concentration required to shift the response curve of the agonist leuprolide to two-fold higher concentration.
T1 sequence (P30969 1-327): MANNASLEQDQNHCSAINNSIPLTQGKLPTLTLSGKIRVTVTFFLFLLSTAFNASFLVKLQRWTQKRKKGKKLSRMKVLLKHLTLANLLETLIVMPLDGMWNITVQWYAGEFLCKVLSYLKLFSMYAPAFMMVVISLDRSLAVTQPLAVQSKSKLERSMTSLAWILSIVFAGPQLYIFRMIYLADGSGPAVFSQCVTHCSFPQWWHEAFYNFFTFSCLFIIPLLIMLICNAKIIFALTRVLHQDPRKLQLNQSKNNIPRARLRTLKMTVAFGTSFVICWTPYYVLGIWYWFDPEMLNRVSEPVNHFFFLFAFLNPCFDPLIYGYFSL
Type: cell-based
Description: Representative compounds of the present invention were evaluated in vitro for inhibition of LH release from rat pituitary cells (pA2). Methods for the assay procedures arc described by F. Haviv, et al. J. Med. Chem., 32:2340-2344 (1989). Values of pA2 are the negative logarithms of the concentration of the particular antagonist test compound required to shift the response curve produced by the agonist leuprolide to two-fold higher concentration. Typically values of 7.0 or greater are indicative of good LHRH antagonist potency, with values of 8.0 or greater being preferred. Leuprolide LHRH agonist, disclosed and claimed in U.S. Pat. No. 4,005,063, has the structure 5-oxo-Pro^1 -His^2 -Trp^3 -Ser^4 -Tyr^5 -D-Leu^6 -Leu^7 -Arg^8 -Pro^9 -NHEt.

Structure (SMILES)	LHRH antagonist potency (pA2)
CC(=O)N[C@H](Cc1ccc2ccccc2c1)C(=O)N[C@H](Cc1ccc(Cl)cc1)C(=O)N[C@H](Cc1cccnc1)C(=O)N[C@@H](CO)C(=O)N(C)[C@@H](Cc1ccc(O)cc1)C(=O)N[C@H](CCCCNC(=O)c1cccnc1)C(=O)N[C@@H](CC(C)C)C(=O)NCCCCCCCCCCN [Example 17, NAcD2Nal-D4ClPhe-D3Pal-Ser-NMeTyr-DLys(Nic)-Leu-NH--(CH2)10 NH2] (Ac-[d2Nal][dPhe(4-Cl)][d3Pal]S[NMeY][dK](Nicotinoyl)L-{NH(CH2)10NH})	7.63
CC(=O)N[C@H](Cc1ccc2ccccc2c1)C(=O)N[C@H](Cc1ccc(Cl)cc1)C(=O)N[C@H](Cc1cccnc1)C(=O)N[C@@H](CO)C(=O)N(C)[C@@H](Cc1ccc(O)cc1)C(=O)N[C@H](CCCCNC(=O)c1cccnc1)C(=O)N[C@@H](CC(C)C)C(=O)NCCCCCCCCN [Example 18, NAcD2Nal-D4ClPhe-D3Pal-Ser-NMeTyr-DLys(Nic)-Leu-NH--(CH2)8 NH2] (Ac-[d2Nal][dPhe(4-Cl)][d3Pal]S[NMeY][dK](Nicotinoyl)L-{NH(CH2)8NH2})	8.48
CNCCNC(=O)[C@H](CC(C)C)NC(=O)[C@@H](CCCCNC(=O)c1cccnc1)NC(=O)[C@H](Cc1ccc(O)cc1)N(C)C(=O)[C@H](CO)NC(=O)[C@@H](Cc1cccnc1)NC(=O)[C@@H](Cc1ccc(Cl)cc1)NC(=O)[C@@H](Cc1ccc2ccccc2c1)NC(C)=O [Example 19, NAcD2Nal-D4ClPhe-D3Pal-Ser-NMeTyr-DLys(Nic)-Leu-NH--(CH2)2 NHCH3] (Ac-[d2Nal][dPhe(4-Cl)][d3Pal]S[NMeY][dK](Nicotinoyl)L-NHCH2CH2NHMe)	9.70
CC(=O)N[C@H](Cc1ccc2ccccc2c1)C(=O)N[C@H](Cc1ccc(Cl)cc1)C(=O)N[C@H](Cc1cccnc1)C(=O)N[C@@H](CO)C(=O)N(C)[C@@H](Cc1ccc(O)cc1)C(=O)N[C@H](CCCCNC(=O)c1cccnc1)C(=O)N[C@@H](CC(C)C)C(=O)NCCCCCCCCNC(=N)N [Example 20, NAcD2Nal-D4ClPhe-D3Pal-Ser-NMeTyr-DLys(Nic)-Leu-NH--(CH2)8 NH(C=NH)NH2] (Ac-[d2Nal][dPhe(4-Cl)][d3Pal]S[NMeY][dK](Nicotinoyl)L-X6)	8.39
CC(=O)N[C@H](Cc1ccc2ccccc2c1)C(=O)N[C@H](Cc1ccc(Cl)cc1)C(=O)N[C@H](Cc1cccnc1)C(=O)N[C@@H](CO)C(=O)N(C)[C@@H](Cc1ccc(O)cc1)C(=O)N[C@H](CCCCNC(=O)c1cccnc1)C(=O)N[C@@H](CC(C)C)C(=O)NCCCCCCCCCCNC(C)C [Example 21, NAcD2Nal-D4ClPhe-D3Pal-Ser-NMeTyr-DLys(Nic)-Leu-NH--(CH2)10 NH-isopropyl] (Ac-[d2Nal][dPhe(4-Cl)][d3Pal]S[NMeY][dK](Nicotinoyl)L-X9)	8.42
CC(=O)N[C@H](Cc1ccc2ccccc2c1)C(=O)N[C@H](Cc1ccc(Cl)cc1)C(=O)N[C@H](Cc1cccnc1)C(=O)N[C@@H](CO)C(=O)N(C)[C@@H](Cc1ccc(O)cc1)C(=O)N[C@H](CCCCNC(=O)c1cccnc1)C(=O)N[C@@H](CC(C)C)C(=O)NCCCCNC(=N)N [Example 22, NAcD2Nal-D4ClPhe-D3Pal-Ser-NMeTyr-DLys(Nic)-Leu-NH--(CH2)4 NH(C=NH)NH2] (Ac-[d2Nal][dPhe(4-Cl)][d3Pal]S[NMeY][dK](Nicotinoyl)L-Agmatine)	10.26
CC(=O)N[C@H](Cc1ccc2ccccc2c1)C(=O)N[C@H](Cc1ccc(Cl)cc1)C(=O)N[C@H](Cc1cccnc1)C(=O)N[C@@H](CO)C(=O)N(C)[C@@H](Cc1ccc(O)cc1)C(=O)N[C@H](CCCCNC(=O)c1cccnc1)C(=O)N[C@@H](CC(C)C)C(=O)NCc1ccccn1 [Example 23, NAcD2Nal-D4ClPhe-D3Pal-Ser-NMeTyr-DLys(Nic)-Leu-NH--CH2 -(2-pyridine)] (Ac-[d2Nal][dPhe(4-Cl)][d3Pal]S[NMeY][dK](Nicotinoyl)L-{NHCH2(2-pyridyl)})	9.18
CC(=O)N[C@H](Cc1ccc2ccccc2c1)C(=O)N[C@H](Cc1ccc(Cl)cc1)C(=O)N[C@H](Cc1cccnc1)C(=O)N[C@@H](CO)C(=O)N(C)[C@@H](Cc1ccc(O)cc1)C(=O)N[C@H](CCCCNC(=O)c1cccnc1)C(=O)N[C@@H](CC(C)C)C(=O)NCc1cccnc1 [Example 24, NAcD2Nal-D4ClPhe-D3Pal-Ser-NMeTyr-DLys(Nic)-Leu-NH--CH2 -(3-pyridine)] (Ac-[d2Nal][dPhe(4-Cl)][d3Pal]S[NMeY][dK](Nicotinoyl)L-{NH(3-picolyl)})	8.30
CC(=O)N[C@H](Cc1ccc2ccccc2c1)C(=O)N[C@H](Cc1ccc(Cl)cc1)C(=O)N[C@H](Cc1cccnc1)C(=O)N[C@@H](CO)C(=O)N(C)[C@@H](Cc1ccc(O)cc1)C(=O)N[C@H](CCCCNC(=O)c1cccnc1)C(=O)N[C@@H](CC(C)C)C(=O)NC1CN2CCC1CC2 (stereo partly drawn) [Example 25, NAcD2Nal-D4ClPhe-D3Pal-Ser-NMeTyr-Dlys(Nic)-Leu-NH--(3-guinuclidine)] (Ac-[d2Nal][dPhe(4-Cl)][d3Pal]S[NMeY][dK](Nicotinoyl)L-X5)	10.02
CC(=O)N[C@H](Cc1ccc2ccccc2c1)C(=O)N[C@H](Cc1ccc(Cl)cc1)C(=O)N[C@H](Cc1cccnc1)C(=O)N[C@@H](CO)C(=O)N(C)[C@@H](Cc1ccc(O)cc1)C(=O)N[C@H](CCCCNC(=O)c1cccnc1)C(=O)N[C@@H](CC(C)C)C(=O)NCCN1CCCCC1 [Example 26, NAcD2Nal-D4ClPhe-D3Pal-Ser-NMeTyr-DLys(Nic)-Leu-NH--CH2 --CH2 -(1-piperidine)] (Ac-[d2Nal][dPhe(4-Cl)][d3Pal]S[NMeY][dK](Nicotinoyl)L-{NHCH2CH2(piperidin-1-yl)})	9.30
CC(=O)N[C@H](Cc1ccc2ccccc2c1)C(=O)N[C@H](Cc1ccc(Cl)cc1)C(=O)N[C@H](Cc1cccnc1)C(=O)N[C@@H](CO)C(=O)N(C)[C@@H](Cc1ccc(O)cc1)C(=O)N[C@H](CCCCNC(=O)c1cccnc1)C(=O)N[C@@H](CC(C)C)C(=O)NCCN1CCOCC1 [Example 27, NAcD2Nal-D4ClPhe-D3Pal-Ser-NMeTyr-DLys(Nic)-Leu-NH--CH2 --CH2 -(1-norpholine)] (Ac-[d2Nal][dPhe(4-Cl)][d3Pal]S[NMeY][dK](Nicotinoyl)L-{NH(2-morpholinoethyl)})	8.30
CC(=O)N[C@H](Cc1ccc2ccccc2c1)C(=O)N[C@H](Cc1ccc(Cl)cc1)C(=O)N[C@H](Cc1cccnc1)C(=O)N[C@@H](CO)C(=O)N(C)[C@@H](Cc1ccc(O)cc1)C(=O)N[C@H](CCCCNC(=O)c1cccnc1)C(=O)N[C@@H](CC(C)C)C(=O)NCCc1ccccn1 [Example 28, NAcD2Nal-D4ClPhe-D3Pal-Ser-NMeTyr-DLys(Nic)-Leu-NH--CH2 --CH2 -(2-pyridine)] (Ac-[d2Nal][dPhe(4-Cl)][d3Pal]S[NMeY][dK](Nicotinoyl)L-{NH(2-(2-pyridyl)ethyl)})	8.10
CC(=O)N[C@H](Cc1ccc2ccccc2c1)C(=O)N[C@H](Cc1ccc(Cl)cc1)C(=O)N[C@H](Cc1cccnc1)C(=O)N[C@@H](CO)C(=O)N(C)[C@@H](Cc1ccc(O)cc1)C(=O)N[C@H](CCCCNC(=O)c1cccnc1)C(=O)N[C@@H](CC(C)C)C(=O)NCCc1cccn1C [Example 29, NAcD2Nal-D4ClPhe-D3Pal-Ser-NMeTyr-DLys(Nic)-Leu-NH--CH2 --CH2 -[2-(1-methyl)pyrrole]] (Ac-[d2Nal][dPhe(4-Cl)][d3Pal]S[NMeY][dK](Nicotinoyl)L-X8)	8.30
CC(=O)N[C@H](Cc1ccc2ccccc2c1)C(=O)N[C@H](Cc1ccc(Cl)cc1)C(=O)N[C@H](Cc1cccnc1)C(=O)N[C@@H](CO)C(=O)N(C)[C@@H](Cc1ccc(O)cc1)C(=O)N[C@H](CCCCNC(=O)c1cccnc1)C(=O)N[C@@H](CC(C)C)C(=O)NCCC1CCCN1C (stereo partly drawn) [Example 30, NAcD2Nal-D4ClPhe-D3Pal-Ser-NMeTyr-DLys(Nic)-Leu-NH--CH2 --CH2 -[2-(1-methyl)pyrrolidine]] (Ac-[d2Nal][dPhe(4-Cl)][d3Pal]S[NMeY][dK](Nicotinoyl)L-X7)	9.80
CC(=O)N[C@H](Cc1ccc2ccccc2c1)C(=O)N[C@H](Cc1ccc(Cl)cc1)C(=O)N[C@H](Cc1cccnc1)C(=O)N[C@@H](CO)C(=O)N(C)[C@@H](Cc1ccc(O)cc1)C(=O)N[C@H](CCCCNC(=O)c1cccnc1)C(=O)N[C@@H](CC(C)C)C(=O)NCCCN1CCOCC1 [Example 31, NAcD2Nal-D4ClPhe-D3Pal-Ser-NMeTyr-DLys(Nic)-Leu-NH--CH2 CH2 CH2 -(1-morpholine)] (Ac-[d2Nal][dPhe(4-Cl)][d3Pal]S[NMeY][dK](Nicotinoyl)L-X13)	9.30
CC(=O)N[C@H](Cc1ccc2ccccc2c1)C(=O)N[C@H](Cc1ccc(Cl)cc1)C(=O)N[C@H](Cc1cccnc1)C(=O)N[C@@H](CO)C(=O)N(C)[C@@H](Cc1ccc(O)cc1)C(=O)N[C@H](CCCCNC(=O)c1cccnc1)C(=O)N[C@@H](CC(C)C)C(=O)NCCCN1CCCCC1C (stereo partly drawn) [Example 32, NAcD2Nal-D4ClPhe-D3Pal-Ser-NMeTyr-DLys(Nic)-Leu-NH--CH2 CH2 CH2 -[1-(2-methyl)piperidine]] (Ac-[d2Nal][dPhe(4-Cl)][d3Pal]S[NMeY][dK](Nicotinoyl)L-X1)	9.07

Source: patent US6191115A, “C-terminus modified heptapeptide LHRH analogs” (Abbott Laboratories, priority 1999, dated 2001)
